Test results from ChEMBL document CHEMBL2440080, “Synthesis and biological evaluation of novel acylhydrazone derivatives as potential antitumor agents” (Bioorg Med Chem, 2013).

Test system: MOLT-4
Experiment: Cytotoxicity against human MOLT4 cells after 48 hrs by sulforhodamine B assay
Type: functional
Details: MOLT-4, 48 h

Compound `O=C(N/N=C/c1ccc(O)cc1O)c1cccc(Nc2ccnc(C(F)(F)F)c2)c1` has a GI50 of 631 nM.

Test system: SNB-75
Experiment: Cytotoxicity against human SNB75 cells after 48 hrs by sulforhodamine B assay
Type: functional
Details: SNB-75, 48 h

Going from `O=C(N/N=C/c1ccc(O)cc1O)c1ccc(Nc2ccnc(C(F)(F)F)c2)cc1` to `O=C(N/N=C/c1ccc(O)cc1O)c1cccc(Nc2ccnc(C(F)(F)F)c2)c1`, the GI50 rises from 3.98 µM to 6.31 µM (1.6-fold).

Test system: CCRF-CEM
Experiment: Cytotoxicity against human CCRF-CEM cells after 48 hrs by sulforhodamine B assay
Type: functional
Details: not given

First: O=C(N/N=C/c1ccc(O)cc1O)c1ccc(Nc2ccnc(C(F)(F)F)c2)cc1
Second: O=C(N/N=C/c1ccc(O)cc1O)c1cccc(Nc2ccnc(C(F)(F)F)c2)c1
The GI50 of the first is 13-fold lower: 31.6 nM for the first, 398 nM for the second.

Test system: U-251
Experiment: Cytotoxicity against human U251 cells after 48 hrs by sulforhodamine B assay
Type: functional
Details: U-251, 48 h

Going from `O=C(N/N=C/c1ccc(O)cc1O)c1ccc(Nc2ccnc(C(F)(F)F)c2)cc1` to `O=C(N/N=C/c1ccc(O)cc1O)c1cccc(Nc2ccnc(C(F)(F)F)c2)c1`, the GI50 rises from 63.1 nM to 794 nM (13-fold).

Test system: NCI-H322M
Experiment: Cytotoxicity against human NCI-H322M cells after 48 hrs by sulforhodamine B assay
Type: functional
Details: not given

Going from `O=C(N/N=C/c1ccc(O)cc1O)c1ccc(Nc2ccnc(C(F)(F)F)c2)cc1` to `O=C(N/N=C/c1ccc(O)cc1O)c1cccc(Nc2ccnc(C(F)(F)F)c2)c1`, the GI50 rises from 19.9 nM to 316 nM (16-fold).

Test system: RPMI-8226
Experiment: Cytotoxicity against human RPMI8226 cells after 48 hrs by sulforhodamine B assay
Type: functional
Details: RPMI-8226, 48 h

Going from `O=C(N/N=C/c1ccc(O)cc1O)c1ccc(Nc2ccnc(C(F)(F)F)c2)cc1` to `O=C(N/N=C/c1ccc(O)cc1O)c1cccc(Nc2ccnc(C(F)(F)F)c2)c1`, the GI50 falls from over 100 µM to 3.98 µM.

Test system: ACHN
Experiment: Cytotoxicity against human ACHN cells after 48 hrs by sulforhodamine B assay
Type: functional
Details: not given

First: O=C(N/N=C/c1ccc(O)cc1O)c1ccc(Nc2ccnc(C(F)(F)F)c2)cc1
Second: O=C(N/N=C/c1ccc(O)cc1O)c1cccc(Nc2ccnc(C(F)(F)F)c2)c1
The GI50 of the first is 16-fold higher: 31.6 µM for the first, 2 µM for the second.

Test system: RXF 393
Experiment: Cytotoxicity against human RXF393 cells after 48 hrs by sulforhodamine B assay
Type: functional
Details: RXF 393, 48 h

First: O=C(N/N=C/c1ccc(O)cc1O)c1ccc(Nc2ccnc(C(F)(F)F)c2)cc1
Second: O=C(N/N=C/c1ccc(O)cc1O)c1cccc(Nc2ccnc(C(F)(F)F)c2)c1
The GI50 of the first is 10-fold higher: 12.6 µM for the first, 1.26 µM for the second.

Test system: KM12
Experiment: Cytotoxicity against human KM12 cells after 48 hrs by sulforhodamine B assay
Type: functional
Details: KM12, 48 h

Compared with `O=C(N/N=C/c1ccc(O)cc1O)c1ccc(Nc2ccnc(C(F)(F)F)c2)cc1`, `O=C(N/N=C/c1ccc(O)cc1O)c1cccc(Nc2ccnc(C(F)(F)F)c2)c1` is lower in GI50: over 100000 nM for the first, 2510 nM for the second.

Test system: HOP-62
Experiment: Cytotoxicity against human HOP62 cells after 48 hrs by sulforhodamine B assay
Type: functional
Details: HOP-62, 48 h

Work on `O=C(N/N=C/c1ccc(O)cc1O)c1cccc(Nc2ccnc(C(F)(F)F)c2)c1` yielded a GI50 of 501 nM.

Test system: SF-295
Experiment: Cytotoxicity against human SF295 cells after 48 hrs by sulforhodamine B assay
Type: functional
Details: SF-295, 48 h

Going from `O=C(N/N=C/c1ccc(O)cc1O)c1ccc(Nc2ccnc(C(F)(F)F)c2)cc1` to `O=C(N/N=C/c1ccc(O)cc1O)c1cccc(Nc2ccnc(C(F)(F)F)c2)c1`, the GI50 rises from 10 nM to 2000 nM (200-fold).

Test system: IGROV-1
Experiment: Cytotoxicity against human IGROV1 cells after 48 hrs by sulforhodamine B assay
Type: functional
Details: IGROV-1, 48 h

First: O=C(N/N=C/c1ccc(O)cc1O)c1ccc(Nc2ccnc(C(F)(F)F)c2)cc1
Second: O=C(N/N=C/c1ccc(O)cc1O)c1cccc(Nc2ccnc(C(F)(F)F)c2)c1
The GI50 of the first is 13-fold higher: 15.8 µM for the first, 1.26 µM for the second.

Test system: HCT-116
Experiment: Cytotoxicity against human HCT116 cells after 48 hrs by sulforhodamine B assay
Type: functional
Details: HCT-116, 48 h

First: O=C(N/N=C/c1ccc(O)cc1O)c1ccc(Nc2ccnc(C(F)(F)F)c2)cc1
Second: O=C(N/N=C/c1ccc(O)cc1O)c1cccc(Nc2ccnc(C(F)(F)F)c2)c1
The GI50 of the first is 79-fold higher: 39.8 µM for the first, 0.501 µM for the second.

Test system: SF-268
Experiment: Cytotoxicity against human SF268 cells after 48 hrs by sulforhodamine B assay
Type: functional
Details: SF-268, 48 h

Going from `O=C(N/N=C/c1ccc(O)cc1O)c1ccc(Nc2ccnc(C(F)(F)F)c2)cc1` to `O=C(N/N=C/c1ccc(O)cc1O)c1cccc(Nc2ccnc(C(F)(F)F)c2)c1`, the GI50 rises from 39.8 nM to 631 nM (16-fold).

Test system: not listed separately
Experiment: Cytotoxicity against human EKVX cells after 48 hrs by sulforhodamine B assay
Type: functional
Details: not given

First: O=C(N/N=C/c1ccc(O)cc1O)c1ccc(Nc2ccnc(C(F)(F)F)c2)cc1
Second: O=C(N/N=C/c1ccc(O)cc1O)c1cccc(Nc2ccnc(C(F)(F)F)c2)c1
The GI50 of the first is 6.3-fold higher: 6.31 µM for the first, 1 µM for the second.

Test system: CAKI-1
Experiment: Cytotoxicity against human CAKI-1 cells after 48 hrs by sulforhodamine B assay
Type: functional
Details: CAKI-1, 48 h

First: O=C(N/N=C/c1ccc(O)cc1O)c1ccc(Nc2ccnc(C(F)(F)F)c2)cc1
Second: O=C(N/N=C/c1ccc(O)cc1O)c1cccc(Nc2ccnc(C(F)(F)F)c2)c1
The GI50 of the first is 63-fold lower: 50.1 nM for the first, 3160 nM for the second.

Test system: OVCAR-3
Experiment: Cytotoxicity against human OVCAR3 cells after 48 hrs by sulforhodamine B assay
Type: functional
Details: OVCAR-3, 48 h

Going from `O=C(N/N=C/c1ccc(O)cc1O)c1ccc(Nc2ccnc(C(F)(F)F)c2)cc1` to `O=C(N/N=C/c1ccc(O)cc1O)c1cccc(Nc2ccnc(C(F)(F)F)c2)c1`, the GI50 rises from 25.1 nM to 316 nM (13-fold).

Test system: NCI/ADR-RES
Experiment: Cytotoxicity against human NCI/ADR-RES cells after 48 hrs by sulforhodamine B assay
Type: functional
Details: not given

Going from `O=C(N/N=C/c1ccc(O)cc1O)c1ccc(Nc2ccnc(C(F)(F)F)c2)cc1` to `O=C(N/N=C/c1ccc(O)cc1O)c1cccc(Nc2ccnc(C(F)(F)F)c2)c1`, the GI50 falls from over 100 µM to 3.98 µM.

Test system: M14
Experiment: Cytotoxicity against human M14 cells after 48 hrs by sulforhodamine B assay
Type: functional
Details: M14, 48 h

Going from `O=C(N/N=C/c1ccc(O)cc1O)c1ccc(Nc2ccnc(C(F)(F)F)c2)cc1` to `O=C(N/N=C/c1ccc(O)cc1O)c1cccc(Nc2ccnc(C(F)(F)F)c2)c1`, the GI50 falls from over 100000 nM to 631 nM.

Test system: OVCAR-4
Experiment: Cytotoxicity against human OVCAR4 cells after 48 hrs by sulforhodamine B assay
Type: functional
Details: OVCAR-4, 48 h

First: O=C(N/N=C/c1ccc(O)cc1O)c1ccc(Nc2ccnc(C(F)(F)F)c2)cc1
Second: O=C(N/N=C/c1ccc(O)cc1O)c1cccc(Nc2ccnc(C(F)(F)F)c2)c1
The GI50 of the first is 13-fold lower: 39.8 nM for the first, 501 nM for the second.

Test system: T47D
Experiment: Cytotoxicity against human T47D cells after 48 hrs by sulforhodamine B assay
Type: functional
Details: not given

First: O=C(N/N=C/c1ccc(O)cc1O)c1ccc(Nc2ccnc(C(F)(F)F)c2)cc1
Second: O=C(N/N=C/c1ccc(O)cc1O)c1cccc(Nc2ccnc(C(F)(F)F)c2)c1
The GI50 of the first is 6.3-fold lower: 79.4 nM for the first, 501 nM for the second.

Test system: HCT-15
Experiment: Cytotoxicity against human HCT15 cells after 48 hrs by sulforhodamine B assay
Type: functional
Details: HCT-15, 48 h

First: O=C(N/N=C/c1ccc(O)cc1O)c1ccc(Nc2ccnc(C(F)(F)F)c2)cc1
Second: O=C(N/N=C/c1ccc(O)cc1O)c1cccc(Nc2ccnc(C(F)(F)F)c2)c1
The GI50 of the first is higher: over 100 µM for the first, 3.16 µM for the second.

Test system: TK-10
Experiment: Cytotoxicity against human TK10 cells after 48 hrs by sulforhodamine B assay
Type: functional
Details: TK-10, 48 h

Going from `O=C(N/N=C/c1ccc(O)cc1O)c1ccc(Nc2ccnc(C(F)(F)F)c2)cc1` to `O=C(N/N=C/c1ccc(O)cc1O)c1cccc(Nc2ccnc(C(F)(F)F)c2)c1`, the GI50 rises from 50.1 nM to 2510 nM (50-fold).

Test system: NCI-H460
Experiment: Cytotoxicity against human NCI-H460 cells after 48 hrs by sulforhodamine B assay
Type: functional
Details: NCI-H460, 48 h

Compared with `O=C(N/N=C/c1ccc(O)cc1O)c1ccc(Nc2ccnc(C(F)(F)F)c2)cc1`, `O=C(N/N=C/c1ccc(O)cc1O)c1cccc(Nc2ccnc(C(F)(F)F)c2)c1` is lower in GI50: over 100 µM for the first, 3.16 µM for the second.

Test system: HOP-92
Experiment: Cytotoxicity against human HOP92 cells after 48 hrs by sulforhodamine B assay
Type: functional
Details: HOP-92, 48 h

Compared with `O=C(N/N=C/c1ccc(O)cc1O)c1ccc(Nc2ccnc(C(F)(F)F)c2)cc1`, `O=C(N/N=C/c1ccc(O)cc1O)c1cccc(Nc2ccnc(C(F)(F)F)c2)c1` is 10-fold lower in GI50: 15.8 µM for the first, 1.58 µM for the second.

Test system: OVCAR-8
Experiment: Cytotoxicity against human OVCAR8 cells after 48 hrs by sulforhodamine B assay
Type: functional
Details: OVCAR-8, 48 h

Going from `O=C(N/N=C/c1ccc(O)cc1O)c1ccc(Nc2ccnc(C(F)(F)F)c2)cc1` to `O=C(N/N=C/c1ccc(O)cc1O)c1cccc(Nc2ccnc(C(F)(F)F)c2)c1`, the GI50 falls from 3160 nM to 631 nM (5-fold).

Test system: SR
Experiment: Cytotoxicity against human SR cells after 48 hrs by sulforhodamine B assay
Type: functional
Details: not given

Going from `O=C(N/N=C/c1ccc(O)cc1O)c1ccc(Nc2ccnc(C(F)(F)F)c2)cc1` to `O=C(N/N=C/c1ccc(O)cc1O)c1cccc(Nc2ccnc(C(F)(F)F)c2)c1`, the GI50 falls from over 100000 nM to 398 nM.

Test system: BT-549
Experiment: Cytotoxicity against human BT549 cells after 48 hrs by sulforhodamine B assay
Type: functional
Details: BT-549, 48 h

First: O=C(N/N=C/c1ccc(O)cc1O)c1ccc(Nc2ccnc(C(F)(F)F)c2)cc1
Second: O=C(N/N=C/c1ccc(O)cc1O)c1cccc(Nc2ccnc(C(F)(F)F)c2)c1
The GI50 of the first is 63-fold lower: 10 nM for the first, 631 nM for the second.

Test system: LOX IMVI
Experiment: Cytotoxicity against human LOXIMVI cells after 48 hrs by sulforhodamine B assay
Type: functional
Details: not given

First: O=C(N/N=C/c1ccc(O)cc1O)c1ccc(Nc2ccnc(C(F)(F)F)c2)cc1
Second: O=C(N/N=C/c1ccc(O)cc1O)c1cccc(Nc2ccnc(C(F)(F)F)c2)c1
The GI50 of the first is 5-fold higher: 2510 nM for the first, 501 nM for the second.

Test system: DU-145
Experiment: Cytotoxicity against human DU145 cells after 48 hrs by sulforhodamine B assay
Type: functional
Details: DU-145, 48 h

First: O=C(N/N=C/c1ccc(O)cc1O)c1ccc(Nc2ccnc(C(F)(F)F)c2)cc1
Second: O=C(N/N=C/c1ccc(O)cc1O)c1cccc(Nc2ccnc(C(F)(F)F)c2)c1
The GI50 of the first is 13-fold higher: 20 µM for the first, 1.58 µM for the second.

Test system: PC-3
Experiment: Cytotoxicity against human PC3 cells after 48 hrs by sulforhodamine B assay
Type: functional
Details: PC-3, 48 h

First: O=C(N/N=C/c1ccc(O)cc1O)c1ccc(Nc2ccnc(C(F)(F)F)c2)cc1
Second: O=C(N/N=C/c1ccc(O)cc1O)c1cccc(Nc2ccnc(C(F)(F)F)c2)c1
The GI50 of the first is 16-fold higher: 20 µM for the first, 1.26 µM for the second.

Test system: HL-60(TB)
Experiment: Cytotoxicity against human HL-60(TB) cells after 48 hrs by sulforhodamine B assay
Type: functional
Details: HL-60, 48 h

First: O=C(N/N=C/c1ccc(O)cc1O)c1ccc(Nc2ccnc(C(F)(F)F)c2)cc1
Second: O=C(N/N=C/c1ccc(O)cc1O)c1cccc(Nc2ccnc(C(F)(F)F)c2)c1
The GI50 of the first is 25-fold higher: 12.6 µM for the first, 0.501 µM for the second.

Test system: UACC-62
Experiment: Cytotoxicity against human UACC62 cells after 48 hrs by sulforhodamine B assay
Type: functional
Details: UACC-62, 48 h

Going from `O=C(N/N=C/c1ccc(O)cc1O)c1ccc(Nc2ccnc(C(F)(F)F)c2)cc1` to `O=C(N/N=C/c1ccc(O)cc1O)c1cccc(Nc2ccnc(C(F)(F)F)c2)c1`, the GI50 rises from 50.1 nM to 398 nM (7.9-fold).
